From patent US10160747B2, “Compounds and methods for kinase modulation, and indications therefor” (Plexxikon Inc., priority 2016, dated 2018)

Test system: MOLM-14 F691L (endogenous FLT3 ITD and transfected FLT3 F691L)
Assay: MOLM-14 F691L cell proliferation assay (CellTiter-Glo)
Assay type: cell-based
Details: Homo sapiens, MOLM-14, 72 h; 3 d growth, GMean
How it was run: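 Three-day proliferation at 37 °C/5% CO2 of FLT3-ITD MOLM-14 lines with D835Y or F691L mutation, seeded 1×10^4 per well. Compounds at eight points, top 1 μM final, 0.2% DMSO. ATP luminescence (CellTiter-Glo) gives IC50.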

IC50, 0.0001 to 10 µM:
O=C(Cc1ccc(-c2cnc(Nc3cnn(C4CC4)c3)nc2)cc1F)Nc1cnc(Cl)c(C(F)(F)F)c1 [Compound P-0240, N-[6-chloro-5-(trifluoromethyl)-3-pyridyl]-2-[4-[2-[(1-cyclopropylpyrazol-4-yl)amino]pyrimidin-5-yl]-2-fluoro-phenyl]acetamide]
COc1ncc(NC(=O)Cc2ccc(-c3cnc4[nH]nc(C5CC5)c4c3)cc2)cc1C(F)(F)F [Compound P-0263, 2-[4-(3-cyclopropyl-1H-pyrazolo[3,4-b]pyridin-5-yl)phenyl]-N-[6-methoxy-5-(trifluoromethyl)-3-pyridyl]acetamide]
O=C(Cc1ccc(-c2cnc(Nc3cnn(C(F)F)c3)nc2)cc1)Nc1cc(C(F)(F)F)ccn1 [Compound P-0023, 2-[4-[2-[[1-(difluoromethyl)pyrazol-4-yl]amino]pyrimidin-5-yl]phenyl]-N-[4-(trifluoromethyl)-2-pyridyl]acetamide]
CCn1cc(Nc2ncc(-c3ccc(CC(=O)Nc4cnc(OC)c(C(F)(F)F)c4)c(F)c3)cn2)cn1 [Compound P-0259, 2-[4-[2-[(1-ethylpyrazol-4-yl)amino]pyrimidin-5-yl]-2-fluoro-phenyl]-N-[6-methoxy-5-(trifluoromethyl)-3-pyridyl]acetamide]
O=C(Cc1ccc(-c2cnc(Nc3cnn(C4CC4)c3)nc2)cc1)Nc1ccc(C(F)(F)F)cn1 [Compound P-0236, 2-[4-[2-[(1-cyclopropylpyrazol-4-yl)amino]pyrimidin-5-yl]phenyl]-N-[5-(trifluoromethyl)-2-pyridyl]acetamide]
CCn1cc(Nc2ncc(-c3ccc(CC(=O)Nc4ccc(C(F)(F)F)nc4)cc3)cn2)cn1 [Compound P-0252, 2-[4-[2-[(1-ethylpyrazol-4-yl)amino]pyrimidin-5-yl]phenyl]-N-[6-(trifluoromethyl)-3-pyridyl]acetamide]
Cc1ncc(NC(=O)Cc2ccc(-c3cnc(Nc4cnn(C)c4C)nc3)cc2)cc1C(F)(F)F [Compound P-0229, 2-[4-[2-[(1,5-dimethylpyrazol-4-yl)amino]pyrimidin-5-yl]phenyl]-N-[6-methyl-5-(trifluoromethyl)-3-pyridyl]acetamide]
COCCn1cc(Nc2ncc(-c3ccc(CC(=O)Nc4cnc(OC)c(C(F)(F)F)c4)cc3)cn2)cn1 [Compound P-0271, 2-[4-[2-[[1-(2-methoxyethyl)pyrazol-4-yl]amino]pyrimidin-5-yl]phenyl]-N-[6-methoxy-5-(trifluoromethyl)-3-pyridyl]acetamide]
COCCn1cc(Nc2ncc(-c3ccc(CC(=O)Nc4cc(C(F)(F)F)ccn4)cc3)cn2)cn1 [Compound P-0222, 2-[4-[2-[[1-(2-methoxyethyl)pyrazol-4-yl]amino]pyrimidin-5-yl]phenyl]-N-[4-(trifluoromethyl)-2-pyridyl]acetamide]
COc1ncc(NC(=O)Cc2ccc(-c3cnc(Nc4cnn(C)c4)nc3)c(F)c2)cc1C(F)(F)F [Compound P-0206, 2-[3-fluoro-4-[2-[(1-methylpyrazol-4-yl)amino]pyrimidin-5-yl]phenyl]-N-[6-methoxy-5-(trifluoromethyl)-3-pyridyl]acetamide]
CCn1cc(Nc2ncc(-c3ccc(CC(=O)Nc4cnc(OC)c(C(F)(F)F)c4)cc3F)cn2)cn1 [Compound P-0246, 2-[4-[2-[(1-ethylpyrazol-4-yl)amino]pyrimidin-5-yl]-3-fluoro-phenyl]-N-[6-methoxy-5-(trifluoromethyl)-3-pyridyl]acetamide]
Cn1cnc(Nc2ncc(-c3ccc(CC(=O)Nc4cc(C(F)(F)F)ccn4)cc3)cn2)c1 [Compound P-0022, 2-[4-[2-[(1-methylimidazol-4-yl)amino]pyrimidin-5-yl]phenyl]-N-[4-(trifluoromethyl)-2-pyridyl]acetamide]
O=C(Cc1ccc(-c2cnc3[nH]c(-c4ccnc(N5CCOCC5)c4)cc3c2)c(F)c1)Nc1cncc(C(F)(F)F)c1 [Compound P-0201, 2-[3-fluoro-4-[2-(2-morpholino-4-pyridyl)-1H-pyrrolo[2,3-b]pyridin-5-yl]phenyl]-N-[5-(trifluoromethyl)-3-pyridyl]acetamide]
COCCn1cc(Nc2ncc(-c3ccc(CC(=O)Nc4ccc(C(F)(F)F)nc4)cc3)cn2)cn1 [Compound P-0273, 2-[4-[2-[[1-(2-methoxyethyl)pyrazol-4-yl]amino]pyrimidin-5-yl]phenyl]-N-[6-(trifluoromethyl)-3-pyridyl]acetamide]
O=C(Cc1ccc(-c2cnc(Nc3cnn(C4CC4)c3)nc2)cc1F)Nc1cncc(C(F)(F)F)c1 [Compound P-0238, 2-[4-[2-[(1-cyclopropylpyrazol-4-yl)amino]pyrimidin-5-yl]-2-fluoro-phenyl]-N-[5-(trifluoromethyl)-3-pyridyl]acetamide]
CC(C)(O)C#Cc1cc2cc(-c3ccc(CC(=O)Nc4cncc(C(F)(F)F)c4)cc3)cnc2[nH]1 [Compound P-0204, 2-[4-[2-(3-hydroxy-3-methyl-but-1-ynyl)-1H-pyrrolo[2,3-b]pyridin-5-yl]phenyl]-N-[5-(trifluoromethyl)-3-pyridyl]acetamide]
CCn1cc(Nc2ncc(-c3ccc(CC(=O)Nc4cc(C(F)(F)F)ccn4)c(F)c3)cn2)cn1 [Compound P-0255, 2-[4-[2-[(1-ethylpyrazol-4-yl)amino]pyrimidin-5-yl]-2-fluoro-phenyl]-N-[4-(trifluoromethyl)-2-pyridyl]acetamide]
COCCn1cc(Nc2ncc(-c3ccc(CC(=O)Nc4cc(C(F)(F)F)ccn4)c(F)c3)cn2)cn1 [Compound P-0270, 2-[2-fluoro-4-[2-[[1-(2-methoxyethyl)pyrazol-4-yl]amino]pyrimidin-5-yl]phenyl]-N-[4-(trifluoromethyl)-2-pyridyl]acetamide]
COCCn1cc(Nc2ncc(-c3ccc(CC(=O)Nc4ccc(C(F)(F)F)nc4)c(F)c3)cn2)cn1 [Compound P-0268, 2-[2-fluoro-4-[2-[[1-(2-methoxyethyl)pyrazol-4-yl]amino]pyrimidin-5-yl]phenyl]-N-[6-(trifluoromethyl)-3-pyridyl]acetamide]
Cn1cc(Nc2ncc(-c3cc(F)c(CC(=O)Nc4cncc(C(F)(F)F)c4)cc3F)cn2)cn1 [Compound P-0207, 2-[2,5-difluoro-4-[2-[(1-methylpyrazol-4-yl)amino]pyrimidin-5-yl]phenyl]-N-[5-(trifluoromethyl)-3-pyridyl]acetamide]
COCCn1cc(Nc2ncc(-c3ccc(CC(=O)Nc4cnc(OC)c(C(F)(F)F)c4)c(F)c3)cn2)cn1 [Compound P-0265, 2-[2-fluoro-4-[2-[[1-(2-methoxyethyl)pyrazol-4-yl]amino]pyrimidin-5-yl]phenyl]-N-[6-methoxy-5-(trifluoromethyl)-3-pyridyl]acetamide]
Cc1nn(C)cc1Nc1ncc(-c2ccc(CC(=O)Nc3cnc(C)c(C(F)(F)F)c3)cc2)cn1 [Compound P-0228, 2-[4-[2-[(1,3-dimethylpyrazol-4-yl)amino]pyrimidin-5-yl]phenyl]-N-[6-methyl-5-(trifluoromethyl)-3-pyridyl]acetamide]
COc1ncc(NC(=O)Cc2ccc(-c3cnc(Nc4cnn(C5CC5)c4)nc3)cc2)cc1C(F)(F)F [Compound P-0234, 2-[4-[2-[(1-cyclopropylpyrazol-4-yl)amino]pyrimidin-5-yl]phenyl]-N-[6-methoxy-5-(trifluoromethyl)-3-pyridyl]acetamide]
COc1ncc(NC(=O)Cc2ccc(-c3cnc4[nH]c(-c5ccc(C#N)nc5)cc4c3)c(F)c2)cc1C(F)(F)F [Compound P-0014, 2-[4-[2-(6-cyano-3-pyridyl)-1H-pyrrolo[2,3-b]pyridin-5-yl]-3-fluoro-phenyl]-N-[6-methoxy-5-(trifluoromethyl)-3-pyridyl]acetamide]
CCn1cc(Nc2ncc(-c3ccc(CC(=O)Nc4cnc(C)c(C(F)(F)F)c4)cc3)cn2)cn1 [Compound P-0254, 2-[4-[2-[(1-ethylpyrazol-4-yl)amino]pyrimidin-5-yl]phenyl]-N-[6-methyl-5-(trifluoromethyl)-3-pyridyl]acetamide]
O=C(Cc1ccc(-c2cnc(Nc3cnn(C4CC4)c3)nc2)cc1)Nc1cnc(Cl)c(C(F)(F)F)c1 [Compound P-0233, N-[6-chloro-5-(trifluoromethyl)-3-pyridyl]-2-[4-[2-[(1-cyclopropylpyrazol-4-yl)amino]pyrimidin-5-yl]phenyl]acetamide]
CCn1cc(Nc2ncc(-c3ccc(CC(=O)Nc4cc(C(F)(F)F)ccn4)cc3)cn2)cn1 [Compound P-0250, 2-[4-[2-[(1-ethylpyrazol-4-yl)amino]pyrimidin-5-yl]phenyl]-N-[4-(trifluoromethyl)-2-pyridyl]acetamide]
O=C(Cc1ccc(-c2cnc(Nc3cnn(C4CC4)c3)nc2)cc1F)Nc1ccc(C(F)(F)F)nc1 [Compound P-0242, 2-[4-[2-[(1-cyclopropylpyrazol-4-yl)amino]pyrimidin-5-yl]-2-fluoro-phenyl]-N-[6-(trifluoromethyl)-3-pyridyl]acetamide]
COc1ncc(NC(=O)Cc2ccc(-c3cnc4[nH]c(-c5ccc(C#N)nc5)cc4c3)cc2F)cc1C(F)(F)F [Compound P-0011, 2-[4-[2-(6-cyano-3-pyridyl)-1H-pyrrolo[2,3-b]pyridin-5-yl]-2-fluoro-phenyl]-N-[6-methoxy-5-(trifluoromethyl)-3-pyridyl]acetamide]
CCn1cc(Nc2ncc(-c3ccc(CC(=O)Nc4cnc(C)c(C(F)(F)F)c4)c(F)c3)cn2)cn1 [Compound P-0261, 2-[4-[2-[(1-ethylpyrazol-4-yl)amino]pyrimidin-5-yl]-2-fluoro-phenyl]-N-[6-methyl-5-(trifluoromethyl)-3-pyridyl]acetamide]
